From ChEMBL document CHEMBL5058564, “EUbOPEN Chemogenomics Library 2 (Incucyte)” (2022)

How the values were obtained:
Type in all cases: toxicity, cell-based
Fibroblast = test: Incucyte cell viability with human fibroblast; conditions: 10 µM, compound concentration 10 uM
HEK-293T = test: Incucyte cell viability with HEK293T; conditions: human, 10 µM, compound concentration 10 uM
U2OS = test: Incucyte cell viability with U2OS; conditions: human, 10 µM, compound concentration 10 uM
[1] = 0 h, replicate number 2, timepoint 0 hours
[2] = 6 h, replicate number 1, timepoint 6 hours
[3] = 24 h, replicate number 1, timepoint 24 hours
[4] = 0 h, replicate number 1, timepoint 0 hours
[5] = 6 h, replicate number 2, timepoint 6 hours
[6] = 12 h, replicate number 1, timepoint 12 hours
[7] = 18 h, replicate number 1, timepoint 18 hours
[8] = 18 h, replicate number 2, timepoint 18 hours
[9] = 12 h, replicate number 2, timepoint 12 hours
[10] = 24 h, replicate number 2, timepoint 24 hours
Further: unitless GR value; below 1 slowed growth and below 0 cell loss.

Row | SMILES | Growth Rate (Fibroblast; [1]) | Growth Rate (Fibroblast; [2]) | Growth Rate (HEK-293T; [4]) | Growth Rate (HEK-293T; [1]) | Growth Rate (U2OS; [4]) | Growth Rate (U2OS; [1]) | Growth Rate (Fibroblast; [5]) | Growth Rate (Fibroblast; [6]) | Growth Rate (Fibroblast; [8]) | Growth Rate (U2OS; [9]) | Growth Rate (U2OS; [8]) | Growth Rate (U2OS; [10]) | Growth Rate (Fibroblast; [9]) | Growth Rate (HEK-293T; [5]) | Growth Rate (HEK-293T; [9]) | Growth Rate (HEK-293T; [7]) | Growth Rate (HEK-293T; [3]) | Growth Rate (U2OS; [2]) | Growth Rate (U2OS; [7]) | Growth Rate (U2OS; [6]) | further results
1 | CC(/C=C1\SC(=S)N(CCCC(=O)Nc2ccc(C(=O)O)c(O)c2)C1=O)=C\c1ccccc1 | -0.04 | 0.97 | 0.57 | 0.54 | 0.71 | -1 | – | – | – | – | – | – | – | – | – | – | – | – | – | – | Growth Rate (Fibroblast; [3]): 0.83; Growth Rate (U2OS; [5]): 0.79
2 | O=C(Nc1cc(-c2ccccc2)nn1-c1ccccc1F)c1ccc([N+](=O)[O-])cc1 | – | -0.14 | 0.97 | 0.17 | – | – | 0.55 | 0.25 | 0.95 | 0.84 | 0.9 | 0.95 | – | – | – | – | – | – | – | – | Growth Rate (Fibroblast; [7]): 0.09; Growth Rate (Fibroblast; [3]): -0.11; Growth Rate (U2OS; [5]): 0.54
3 | COC1(C[S@@+]([O-])c2ccccc2)CCN(CCc2c[nH]c3ccc(F)cc23)CC1 | – | 0.42 | 0.79 | – | 0.42 | -1 | -0.24 | 0.32 | 0.53 | – | – | – | 0.15 | 0.72 | 0.77 | 0.91 | 0.8 | -0.09 | – | – | Growth Rate (Fibroblast; [7]): 0.49; Growth Rate (Fibroblast; [3]): 0.53; Growth Rate (Fibroblast; [10]): 0.79
4 | COc1cc(OC2CCN(C(C)=O)CC2)ccc1C(=O)N1CCC(N2C(=O)OCc3ccccc32)CC1 | – | -0.07 | 0.92 | – | 0.75 | – | -0.41 | 0.28 | – | 0.77 | 0.78 | 0.88 | 0.65 | – | – | – | – | 0.85 | 0.91 | – | Growth Rate (Fibroblast; [7]): 0.37; Growth Rate (Fibroblast; [3]): 0.24; Growth Rate (U2OS; [5]): 0.79; Growth Rate (U2OS; [3]): 0.91
5 | COc1ccc(-n2c(C)c([N+](=O)[O-])c3ccc(O)cc32)cc1 | – | – | 0.39 | – | – | -1 | 0.98 | – | 0.87 | 0.73 | 0.71 | 0.67 | – | – | – | – | – | -0.36 | 0.7 | 0.46 | Growth Rate (Fibroblast; [10]): 0.5; Growth Rate (U2OS; [5]): 0.75; Growth Rate (U2OS; [3]): 0.63
6 | Cc1nc[nH]c1CCN.Cl | – | – | 0.42 | 0.64 | -0.24 | -1 | 0.14 | – | 0.58 | – | – | – | 0.83 | – | – | 0.92 | 0.81 | – | 0.91 | – | Growth Rate (Fibroblast; [4]): 0.7; Growth Rate (Fibroblast; [10]): 0.86; Growth Rate (HEK-293T; [6]): 0.91
7 | N[C@@H](CCP(=O)(O)O)C(=O)O | – | -0.06 | 0.99 | – | – | -1 | – | 0.45 | – | – | 0.78 | 0.97 | – | 0.79 | 0.88 | – | – | 0.67 | 0.86 | 0.39 | Growth Rate (HEK-293T; [10]): 0.78
8 | O=C(O)c1nc2ccccc2c2[nH]c3c(I)cccc3c12 | 0.92 | – | 0.01 | 0.84 | – | -1 | – | – | – | 0.85 | 0.85 | 0.91 | – | – | 0.75 | – | – | 0.56 | 0.93 | – | Growth Rate (Fibroblast; [4]): -0.96; Growth Rate (HEK-293T; [8]): 0.78
9 | COc1cc(OC)cc(C(=O)NNC(=O)Nc2cccc3ccccc23)c1 | – | 0.64 | 0.01 | 0.45 | 0.7 | -1 | – | 0.93 | – | 0.87 | 0.77 | 0.86 | – | – | – | 0.97 | – | 0.36 | 0.78 | 1 | Growth Rate (U2OS; [3]): 0.87
10 | CCc1cc2c(cc1-c1cccc(S(=O)(=O)F)c1)C(C)(C)c1[nH]c3cc(C#N)ccc3c1C2=O | 0.22 | 0.03 | 0.26 | 0.5 | 0.95 | -1 | 0.66 | -0.15 | 0.47 | 0.81 | 0.78 | 0.78 | 0.17 | 0.37 | 0.6 | 0.78 | 1 | -0.03 | 0.58 | 0.61 | Growth Rate (Fibroblast; [7]): -0.21; Growth Rate (Fibroblast; [3]): -0.18; Growth Rate (Fibroblast; [10]): 0.58; Growth Rate (HEK-293T; [2]): 0.46; Growth Rate (HEK-293T; [6]): 0.99; Growth Rate (HEK-293T; [8]): 0.62; Growth Rate (U2OS; [5]): 0.92
11 | CC(C)Oc1ccc(F)c(-c2cnc(N)c(C(=O)Nc3cnccc3N3CCC[C@@H](C(=O)O)C3)n2)c1 | 0.06 | – | 0.29 | 0.07 | – | -1 | – | – | – | – | 0.84 | 0.73 | – | 0.25 | 0.14 | 0.21 | 0.25 | – | – | – | Growth Rate (Fibroblast; [4]): -0.81; Growth Rate (HEK-293T; [2]): 0.66; Growth Rate (HEK-293T; [6]): 0.11; Growth Rate (HEK-293T; [8]): 0.13; Growth Rate (HEK-293T; [10]): 0.33
12 | O=C(O)C(F)(F)F.O=C1NC(=O)/C(=C/c2c[nH]c(=O)c(-c3ccc(N4CCNCC4)nc3)c2)S1 | – | – | 0.87 | 0.65 | -0.39 | -1 | 0.04 | – | 0.64 | – | – | 0.94 | 0.66 | 0.18 | 0.7 | – | – | 0.45 | 1 | 0.51 | Growth Rate (Fibroblast; [4]): 0.44; Growth Rate (Fibroblast; [10]): 0.71; Growth Rate (HEK-293T; [8]): 0.92
13 | O=C(Nc1cc(C(F)(F)F)ccc1N1CCN(Cc2ccccn2)CC1)c1ccc(-c2ccncc2)o1 | – | 0.13 | 0.95 | 0.73 | -0.79 | -1 | -0.21 | -0.19 | 0.16 | 0.93 | 0.83 | 0.76 | 0.06 | 0.41 | -0.05 | -0.1 | -0.03 | – | – | – | Growth Rate (Fibroblast; [4]): 0.86; Growth Rate (Fibroblast; [7]): 0.1; Growth Rate (Fibroblast; [3]): 0.21; Growth Rate (Fibroblast; [10]): 0.56; Growth Rate (HEK-293T; [2]): 0.44; Growth Rate (HEK-293T; [6]): -0.16; Growth Rate (HEK-293T; [8]): -0.19; Growth Rate (HEK-293T; [10]): -0.11
14 | COc1ccc2nc3ccc(OC)cc3c(SCCCN)c2c1.Cl | 0.39 | 0.94 | -0.05 | -0.25 | -0.75 | -0.3 | – | – | – | 0.2 | 0.16 | 0.21 | – | 0.26 | 0.33 | 0.19 | 0.28 | – | 0.19 | 0.7 | Growth Rate (Fibroblast; [4]): 0.15; Growth Rate (HEK-293T; [2]): -0.57; Growth Rate (HEK-293T; [6]): -0.16; Growth Rate (HEK-293T; [8]): 0.22; Growth Rate (HEK-293T; [10]): 0.19; Growth Rate (U2OS; [3]): 0.14
15 | O=C1NC(NC23CC4CC(CC(C4)C2)C3)=N/C1=C\c1ccc2ncsc2c1 | 0.36 | – | -0.13 | -0.17 | -0.86 | -1 | – | – | – | – | 0.88 | 0.7 | – | – | 0.24 | 0.03 | 0.01 | – | 0.56 | – | Growth Rate (Fibroblast; [4]): -0.85; Growth Rate (HEK-293T; [6]): 0.28; Growth Rate (HEK-293T; [8]): 0.09; Growth Rate (HEK-293T; [10]): 0.06; Growth Rate (U2OS; [3]): 0.62
16 | CCNC(=O)[C@H]1O[C@@H](n2cnc3c(N)nc(NCCc4ccc(CCC(=O)O)cc4)nc32)[C@H](O)[C@@H]1O.Cl | 0.98 | 0.96 | 0.05 | 0.1 | -0.07 | – | 0.47 | – | – | – | – | 0.97 | 0.63 | – | – | – | – | 0 | 0.96 | 0.64 | Growth Rate (HEK-293T; [2]): 0.95; Growth Rate (U2OS; [5]): 0.99
